Where two headings read alike, the source gives them in different places.
Experiments:
[1] = molecular target: T1, human recombinant HDAC1 (Homo sapiens, UniProt Q13547); assay: HDAC1 enzyme activity inhibition (HDAC Fluorimetric Drug Discovery Kit); assay type: biochemical; details: read-out: HDAC1
T1 construct: purchased Enzo Life Science, Inc. BML-SE456
Summary of the method: (§1)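 Fluorimetric deacetylase read-out: after 30 min with Developer II following a 60 min, 30° C reaction of recombinant enzyme ([…]) with 10 μM substrate, across five-fold serial compound dilutions.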

[2] = system: hippocampal neurons from a Sprague-Dawley (SD) rat fetus; assay: Effect of HDAC6-specific inhibitor on axonal transport of mitochondria in amyloid-beta treated neurons; assay type: cell-based; details: transport velocity of mitochondria in neuronal axon after normalization; vehicle = 100%, amyloid beta treatment group = 0%; compound treatment for three hours
Protocol: On the 17th to 18th days (E17-18) of insemination, the hippocampal neurons from a Sprague-Dawley (SD) rat fetus were cultured in a culture container for imaging, which had been coated with extracellular matrix, and were treated with amyloid-beta protein fragments at a concentration of […]. In 24 hours later, the neurons were treated with the compound on the 8th day of in vitro culture. In three hours later, the resulting neurons were treated with MitoTracker Red CMXRos (Life Technologies, NY, USA) for last five minutes to stain mitochondria. An image on the axonal transport of stained neuron mitochondria was taken with a confocal microscope (Leica SP8; Leica microsystems, UK) at an interval of one second for one minute to measure a transport velocity of each mitochondria per second with an IMARIS analysis program (BITPLANE, Zurich, Switzerland).
In result, after setting a section, in which the group treated with amyloid-beta had shown a significant decrease in the transport velocity of mitochondria compared to a vehicle, it was confirmed for 1,3,4-oxadiazole triazol derivative compounds of the present invention, stereoisomers thereof or pharmaceutically acceptable salts thereof that the vehicles is represented as 100%, the amyloid beta treatment group is represented as 0%, a velocity distribution of the compound after normalization is represented as *, 0%˜50%; **, 50%˜100%; ***, >100%.

[3] = molecular target: T2, human recombinant HDAC6 (Homo sapiens, UniProt Q9UBN7); assay: HDAC6 enzyme activity inhibition (HDAC Fluorimetric Drug Discovery Kit); assay type: biochemical
T2 construct: purchased Calbiochem Inc. 382180
T2 sequence (Q9UBN7 1-1215): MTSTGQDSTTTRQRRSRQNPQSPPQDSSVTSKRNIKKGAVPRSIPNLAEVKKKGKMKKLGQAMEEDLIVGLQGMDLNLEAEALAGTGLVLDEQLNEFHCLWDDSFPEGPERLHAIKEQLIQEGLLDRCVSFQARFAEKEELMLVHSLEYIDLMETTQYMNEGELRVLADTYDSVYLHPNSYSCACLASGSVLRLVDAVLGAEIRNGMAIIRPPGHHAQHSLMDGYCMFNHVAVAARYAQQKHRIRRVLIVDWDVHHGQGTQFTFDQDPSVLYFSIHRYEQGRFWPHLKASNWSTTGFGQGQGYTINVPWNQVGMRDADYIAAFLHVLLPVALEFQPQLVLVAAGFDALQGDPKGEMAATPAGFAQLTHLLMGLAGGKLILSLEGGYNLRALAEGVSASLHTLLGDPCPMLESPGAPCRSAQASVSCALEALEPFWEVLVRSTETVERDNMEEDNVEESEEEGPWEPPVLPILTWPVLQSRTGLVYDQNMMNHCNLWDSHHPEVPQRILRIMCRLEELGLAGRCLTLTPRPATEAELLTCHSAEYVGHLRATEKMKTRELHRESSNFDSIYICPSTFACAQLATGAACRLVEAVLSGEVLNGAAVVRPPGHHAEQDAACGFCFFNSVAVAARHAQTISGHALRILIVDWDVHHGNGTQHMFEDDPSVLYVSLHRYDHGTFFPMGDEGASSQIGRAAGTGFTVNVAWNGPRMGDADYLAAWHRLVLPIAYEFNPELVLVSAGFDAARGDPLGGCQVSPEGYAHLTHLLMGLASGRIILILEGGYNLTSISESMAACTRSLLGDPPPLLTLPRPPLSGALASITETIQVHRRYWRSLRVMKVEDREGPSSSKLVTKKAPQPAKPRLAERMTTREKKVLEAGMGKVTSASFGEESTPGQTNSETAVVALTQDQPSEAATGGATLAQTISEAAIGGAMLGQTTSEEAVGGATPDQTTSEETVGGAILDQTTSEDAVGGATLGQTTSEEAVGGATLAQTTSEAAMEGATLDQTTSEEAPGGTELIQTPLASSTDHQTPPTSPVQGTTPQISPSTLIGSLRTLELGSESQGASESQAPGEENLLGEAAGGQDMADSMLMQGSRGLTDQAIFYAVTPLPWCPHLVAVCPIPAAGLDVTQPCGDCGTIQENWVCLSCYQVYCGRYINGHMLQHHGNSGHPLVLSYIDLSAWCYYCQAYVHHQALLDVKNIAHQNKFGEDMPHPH
Summary of the method: as §1

[4] = human recombinant HDAC1, IC50 calculated with GraphPad Prism
[5] = human recombinant HDAC6, IC50 calculated with GraphPad Prism

T1 sequence (Q13547 whole entry): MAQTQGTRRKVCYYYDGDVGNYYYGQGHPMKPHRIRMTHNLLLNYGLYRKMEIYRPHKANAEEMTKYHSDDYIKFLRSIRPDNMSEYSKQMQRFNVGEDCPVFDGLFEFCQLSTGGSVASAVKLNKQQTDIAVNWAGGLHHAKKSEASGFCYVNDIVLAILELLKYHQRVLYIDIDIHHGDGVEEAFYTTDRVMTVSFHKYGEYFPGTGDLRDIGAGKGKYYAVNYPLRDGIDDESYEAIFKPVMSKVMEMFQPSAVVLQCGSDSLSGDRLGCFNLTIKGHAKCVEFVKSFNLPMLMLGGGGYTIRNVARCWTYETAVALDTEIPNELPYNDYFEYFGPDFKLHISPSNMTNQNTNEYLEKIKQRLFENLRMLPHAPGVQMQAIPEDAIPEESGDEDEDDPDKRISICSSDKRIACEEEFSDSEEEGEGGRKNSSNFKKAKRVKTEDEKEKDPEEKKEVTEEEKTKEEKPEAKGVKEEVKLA

SMILES	IC50 [1, 4] [nM]	Velocity distribution (%) [2]	HDAC6 selectivity (fold) ([3]; HDAC1 IC50 / HDAC6 IC50)	IC50 [3, 5] [nM]	IC50 ([1]; human recombinant HDAC1, Fluor de Lys substrate, 30° C. 60 minutes) [nM]	HDAC6 selectivity (fold) ([3]; HDAC6 over HDAC1)	IC50 ([3]; human recombinant HDAC6, same protocol as HDAC1) [nM]
FC(F)c1nnc(-c2ccc(Cn3cc(-c4cccs4)nn3)nc2)o1 [Compound 3902, 2-(difluoromethyl)-5-(6-((4-(thiophen-2-yl)-1H-1,2,3-triazol-1-yl)methyl)pyridin-3-yl)-1,3,4-oxadiazole]	> 50000	*** (***, >100%)	2415	20.7	–	–	–
FC(F)c1nnc(-c2ccc(Cn3cc(-c4cccc(-n5ccnc5)c4)nn3)nc2)o1 [Compound 4075, 2-(6-((4-(3-(1H-imidazol-1-yl)phenyl)-1H-1,2,3-triazol-1-yl)methyl)pyridin-3-yl)-5-(difluoromethyl)-1,3,4-oxadiazole]	> 50000	*** (***, >100%)	3048	16.4	–	–	–
FC(F)c1nnc(-c2ccc(Cn3cc(-c4ccc5occc5c4)nn3)nc2)o1 [Compound 4073, 2-(6-((4-(benzofuran-5-yl)-1H-1,2,3-triazol-1-yl)methyl)pyridin-3-yl)-5-(difluoromethyl)-1,3,4-oxadiazole]	> 50000	** (**, 50%˜100%)	822	60.8	–	–	–
FC(F)c1nnc(-c2ccc(Cn3cc(-c4ccccn4)nn3)nc2)o1 [Compound 3881, 2-(difluoromethyl)-5-(6-((4-(pyridin-2-yl)-1H-1,2,3-triazol-1-yl)methyl)pyridin-3-yl)-1,3,4-oxadiazole]	> 50000	*** (***, >100%)	1470	34	–	–	–
CCC(=O)N1CCN(c2cccc(-c3cn(Cc4ccc(-c5nnc(C(F)F)o5)cn4)nn3)c2)CC1 [Compound 3991]	> 50000	** (**, 50%˜100%)	1773	28.2	–	–	–
CCN1CCN(c2cccc(-c3cn(Cc4ccc(-c5nnc(C(F)F)o5)cc4F)nn3)c2)CC1 [Compound 4373, 2-(difluoromethyl)-5-(4-((4-(3-(4-ethylpiperazin-1-yl)phenyl)-1H-1,2,3-triazol-1-yl)methyl)-3-fluorophenyl)-1,3,4-oxadiazole]	> 50000	*** (***, >100%)	335	14.9	–	–	–
Cc1ccc(-c2cn(Cc3ccc(-c4nnc(C(F)F)o4)cn3)nn2)cc1 [Compound 3738, 2-(difluoromethyl)-5-(6-((4-(p-tolyl)-1H-1,2,3-triazol-1-yl)methyl)pyridin-3-yl)-1,3,4-oxadiazole]	> 50000	*** (***, >100%)	1136	44	–	–	–
Cc1cc2ccc(-c3cn(Cc4ccc(-c5nnc(C(F)F)o5)cn4)nn3)cc2[nH]1 [Compound 4287, 2-(difluoromethyl)-5-(6-((4-(2-methyl-1H-indol-6-yl)-1H-1,2,3-triazol-1-yl)methyl)pyridin-3-yl)-1,3,4-oxadiazole]	> 50000	*** (***, >100%)	2092	23.9	–	–	–
CN1CCN(Cc2c[nH]c3cc(-c4cn(Cc5ccc(-c6nnc(C(F)F)o6)cn5)nn4)ccc23)CC1 [Compound 3986, 2-(difluoromethyl)-5-(6-((4-(3-((4-methylpiperazin-1-yl)methyl)-1H-indol-6-yl)-1H-1,2,3-triazol-1-yl)methyl)pyridin-3-yl)-1,3,4-oxadiazole]	> 50000	*** (***, >100%)	6756	7.4	–	–	–
Fc1cc(-c2nnc(C(F)F)o2)cnc1Cn1cc(-c2ccc(CN3CCCC3)cc2)nn1 [Compound 18058, 2-(difluoromethyl)-5-(5-fluoro-6-((4-(4-(pyrrolidin-1-ylmethyl)phenyl)-1H-1,2,3-triazol-1-yl)methyl)pyridin-3-yl)-1,3,4-oxadiazole]	–	*** (***, >100%)	–	–	> 50000	2272	22
Fc1cc(-c2nnc(C(F)F)o2)ccc1Cn1cc(-c2cccc3[nH]ccc23)nn1 [Compound 4079, 2-(4-((4-(1H-indol-4-yl)-1H-1,2,3-triazol-1-yl)methyl)-3-fluorophenyl)-5-(difluoromethyl)-1,3,4-oxadiazole]	> 50000	** (**, 50%˜100%)	1992	25.1	–	–	–
Fc1cc(-c2nnc(C(F)F)o2)ccc1Cn1cc(-c2ccc3c(CN4CCCC4)c[nH]c3c2)nn1 [Compound 4109, 2-(difluoromethyl)-5-(3-fluoro-4-((4-(3-(pyrrolidin-1-ylmethyl)-1H-indol-6-yl)-1H-1,2,3-triazol-1-yl)methyl)phenyl)-1,3,4-oxadiazole]	> 50000	*** (***, >100%)	3649	13.7	–	–	–
CC(C)N1CCc2ccc(-c3cn(Cc4ccc(-c5nnc(C(F)F)o5)cn4)nn3)cc2C1 [Compound 4210, 2-(difluoromethyl)-5-(6-((4-(2-isopropyl-1,2,3,4-tetrahydroisoquinolin-7-yl)-1H-1,2,3-triazol-1-yl)methyl)pyridin-3-yl)-1,3,4-oxadiazole]	> 50000	* (*, 0%˜50%)	963	51.9	–	–	–
FC(F)c1nnc(-c2ccc(Cn3cc(-c4ccc5c(c4)CCN(C4COC4)C5)nn3)nc2)o1 [Compound 4055, 2-(difluoromethyl)-5-(6-((4-(2-(oxetan-3-yl)-1,2,3,4-tetrahydroisoquinolin-6-yl)-1H-1,2,3-triazol-1-yl)methyl)pyridin-3-yl)-1,3,4-oxadiazole]	> 50000	* (*, 0%˜50%)	868	57.6	–	–	–
CC(C)(F)C(=O)Nc1cccc(-c2cn(Cc3ccc(-c4nnc(C(F)F)o4)cn3)nn2)c1 [Compound 3987, N-(3-(1-((5-(5-(difluoromethyl)-1,3,4-oxadiazol-2-yl)pyridin-2-yl)methyl)-1H-1,2,3-triazol-4-yl)phenyl)-2-fluoro-2-methylpropanamide]	> 50000	* (*, 0%˜50%)	5494	9.1	–	–	–
FC(F)c1nnc(-c2ccc(Cn3cc(-c4cccc(CN5CCOCC5)c4)nn3)nc2)o1 [Compound 3916, 4-(3-(1-((5-(5-(difluoromethyl)-1,3,4-oxadiazol-2-yl)pyridin-2-yl)methyl)-1H-1,2,3-triazol-4-yl)benzyl)morpholine]	> 50000	*** (***, >100%)	1754	28.5	–	–	–
